Measurements reported in patent publication US6552012B2 (priority 2000, dated 2003).
Counter-ions that a name gives are not always drawn. Like-named read-outs stand apart in the source and are kept apart here.

Tests used:
[1] = target: T1, nAChRs comprised of α4 and β2 subunits (Rattus norvegicus, UniProt P09483+P12390); test: In vitro inhibition of 3H-cytisine binding (Assay I)
T1 construct: Cerebral corticies from male Wistar rats (150-250 g) are homogenised; from tissue; host or cells: rat cerebral cortex membranes (male Wistar)
T1 sequence (P09483 31-630): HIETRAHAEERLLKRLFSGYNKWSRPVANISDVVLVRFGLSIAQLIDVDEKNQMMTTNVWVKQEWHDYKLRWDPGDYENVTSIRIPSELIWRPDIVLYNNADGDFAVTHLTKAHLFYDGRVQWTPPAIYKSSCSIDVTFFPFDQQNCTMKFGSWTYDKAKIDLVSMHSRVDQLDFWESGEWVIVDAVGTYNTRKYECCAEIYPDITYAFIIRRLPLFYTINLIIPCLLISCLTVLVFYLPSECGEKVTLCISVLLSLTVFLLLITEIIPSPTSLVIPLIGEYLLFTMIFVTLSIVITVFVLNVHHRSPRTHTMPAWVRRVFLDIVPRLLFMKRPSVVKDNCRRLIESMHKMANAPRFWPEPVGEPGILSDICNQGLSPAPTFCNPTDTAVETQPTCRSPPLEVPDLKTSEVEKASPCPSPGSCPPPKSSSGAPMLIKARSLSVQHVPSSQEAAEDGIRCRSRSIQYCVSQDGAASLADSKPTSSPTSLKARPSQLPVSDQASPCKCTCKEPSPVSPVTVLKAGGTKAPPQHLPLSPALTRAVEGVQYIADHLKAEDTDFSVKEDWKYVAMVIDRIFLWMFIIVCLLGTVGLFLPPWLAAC
T1 sequence (P12390 25-500): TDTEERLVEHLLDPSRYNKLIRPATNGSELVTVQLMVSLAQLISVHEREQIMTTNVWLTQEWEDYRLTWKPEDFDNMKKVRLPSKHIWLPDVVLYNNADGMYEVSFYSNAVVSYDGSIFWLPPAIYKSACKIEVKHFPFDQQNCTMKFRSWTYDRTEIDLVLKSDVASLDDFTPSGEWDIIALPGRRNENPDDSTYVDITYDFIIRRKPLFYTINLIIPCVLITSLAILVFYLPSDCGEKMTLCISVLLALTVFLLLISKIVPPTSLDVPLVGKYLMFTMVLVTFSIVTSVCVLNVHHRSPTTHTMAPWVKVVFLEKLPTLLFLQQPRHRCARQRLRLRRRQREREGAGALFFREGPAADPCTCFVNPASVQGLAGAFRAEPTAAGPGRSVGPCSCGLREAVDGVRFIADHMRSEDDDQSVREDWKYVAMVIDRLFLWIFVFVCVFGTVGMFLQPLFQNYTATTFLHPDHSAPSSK
Protocol: In Vitro inhibition of ^3H-cytisine binding (Assay I)
The predominant subtype with high affinity for nicotine is comprised of α4 and β2 subunits. nAChRs of the latter type can selectively be labelled by the nicotine agonist ^3H-cytisine.
Preparations are performed at 0-4° C. unless otherwise indicated. Cerebral corticies from male Wistar rats (150-250 g) are homogenised for 20 seconds in 15 ml Tris, HCl (50 mM, pH 7.4) containing 120 mM NaCl, 5 mM KCl, 1 mM MgCl2 and 2.5 mM CaCl2 using an Ultra-Turrax homogeniser. The homogenate is centrifuged at 27,000×g for 10 minutes. The supernatant is discarded and the pellet is resuspended in fresh buffer and centrifuged a second time. The final pellet is resuspended in fresh buffer (35 ml per g of original tissue) and used for binding assays.
Aliquots of 500 μl homogenate are added to 25 μl of test solution and 25 μl of ^3H-cytisine (1 nM, final concentration), mixed and incubated for 90 minutes at 2° C. Non-specific binding is determined using (−)-nicotine (100 μM, final concentration). After incubation the samples are added 5 ml of ice-cold buffer and poured directly onto Whatman GF/C glass fibre filters under suction and immediately washed with 2×5 ml ice-cold buffer. The amount of radioactivity on the filters is determined by conventional liquid scintillation counting. Specific binding is total binding minus non-specific binding.

[2] = target: T2, nAChR formed by the α7 subunit isoform (Rattus norvegicus, UniProt Q05941); test: biochemical; type: binding; conditions: read-out: Assay III IC50
T2 construct: Cerebral cortices from male Wistar rats (150-250 g) are homogenised; from tissue; host or cells: rat cerebral cortex membranes (male Wistar)
T2 sequence (Q05941 23-502): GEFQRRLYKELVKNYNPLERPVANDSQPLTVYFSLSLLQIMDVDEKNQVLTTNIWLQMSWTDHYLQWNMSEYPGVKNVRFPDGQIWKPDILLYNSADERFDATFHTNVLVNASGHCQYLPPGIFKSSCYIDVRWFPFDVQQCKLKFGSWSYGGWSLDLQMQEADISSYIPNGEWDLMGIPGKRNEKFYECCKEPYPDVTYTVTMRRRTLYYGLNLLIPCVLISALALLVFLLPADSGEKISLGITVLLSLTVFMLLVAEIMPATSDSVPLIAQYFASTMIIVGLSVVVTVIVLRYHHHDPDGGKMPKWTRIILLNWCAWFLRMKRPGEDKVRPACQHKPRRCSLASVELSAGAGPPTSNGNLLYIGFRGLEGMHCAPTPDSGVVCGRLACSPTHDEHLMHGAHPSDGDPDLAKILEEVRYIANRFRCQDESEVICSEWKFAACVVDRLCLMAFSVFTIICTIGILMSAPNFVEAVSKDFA

[3] = 3H-cytisine 1 nM, rat cerebral cortex homogenate, read-out: Assay I IC50

SMILES | IC50 [1] [µM] | IC50 [2] [µM] | IC50 [1, 3] [µM] | melting point [°C]
CC=COc1cncc(N2CCC3CCC(C2)N3C)c1 (stereo not drawn) [3-[5-(Propyl-1-en-oxy)-3-pyridyl]-9-methyl-3,9-diazabicyclo-[4.2.1]-nonane Fumaric Acid Salt] | 0.005 | 10 |  | 
CCOc1cncc(N2CCC3CCC(C2)N3)c1.O=C(O)/C=C/C(=O)O (stereo not drawn) [3-(5-Ethoxy-3-pyridyl)-3,9-diazabicyclo-[4.2.1]-nonane Fumaric Acid Salt] |  | 6.2 | < 0.03 | 143 to 146
CCOc1cncc(N2CCC3CCC(C2)N3C)c1 (stereo not drawn) [3-[5-Ethoxy-(3-pyridyl)]-9-methyl-3,9-diazabicyclo-[4.2.1]-nonane bis-fumaric Acid Salt] |  | 8.1 | 0.005 | 
C=COc1cncc(N2CCC3CCC(C2)N3C)c1 (stereo not drawn) [3-(5Ethenyloxy-3-pyridyl)-9-methyl-3,9-diazabicyclo-[4.2.1]-nonane Fumaric Acid Salt] |  | 5.8 | 0.003 | 
CC=COc1cncc(N2C3CCNCC2CC3)c1 (stereo not drawn) [9-[5-(Propyl-1-en-oxy)-(3-pyridyl)]-3,9-diazabicyclo-[4.2.1]-nonane Fumaric Acid Salt] |  | 2.7 | 0.003 | 
CCOc1cncc(N2C3CCNCC2CC3)c1 (stereo not drawn) [9-[5-Ethoxy-(3-pyridyl)]-3,9-diazabicyclo-[4.2.1]-nonane Fumaric Acid Salt] |  | 2.7 | 0.003 | 
CC=COc1cncc(N2CCC3CCC(C2)N3)c1 (stereo not drawn) (as salt: fumaric acid salt) [3-[5-(Propyl-1-en-oxy)-3-pyridyl]-3,9-diazabicyclo-[4.2.1]-nonane bis Fumaric Acid Salt] |  |  |  | 144 to 146
CC=COc1cncc(N2CCC3CCC(C2)N3)c1 (stereo not drawn) [3-[5-(Propyl-1-en-oxy)-3-pyridyl]-3,9-diazabicyclo-[4.2.1]-nonane bis Fumaric Acid Salt] | 0.002 | 1.8 |  | 
Clc1ccc(N2CCC3CCC(C2)N3)nn1 (stereo not drawn) [3-[6-Chloro-(3-pyridazinyl)]-3,9-diazabicyclo-[4.2.1]-nonane Fumaric Acid Salt] | 0.02 | 1.4 |  | 
CN1C2CCC1CN(c1cncc(Cl)c1)CC2.O=C(O)/C=C/C(=O)O (stereo not drawn) |  |  |  | 181 to 182
CN1C2CCCC1CN(c1cncc(Br)c1)CC2.O=C(O)/C=C/C(=O)O (stereo not drawn) |  |  |  | 162.5 to 164.5
C=COc1cncc(N2CCC3CCC(C2)N3)c1.O=C(O)/C=C/C(=O)O (stereo not drawn) [3-(5-Ethenyloxy-3-pyridyl)-3,9-diazabicyclo-[4.2.1]-nonane Fumaric Acid Salt] |  | 1.5 | 0.002 | 145 to 147
CCOc1cc(N2CCC3CCC(C2)N3C)cnc1Cl.O=C(O)/C=C/C(=O)O (stereo not drawn) |  |  |  | 208.6
COc1cncc(N2C3CCNCC2CC3)c1 (stereo not drawn) (as salt: fumaric acid salt) [9-[5-Methoxy)-(3-pyridyl)]-3,9-diazabicyclo-[4.2.1]-nonane Fumaric Acid Salt] |  |  |  | 183 to 185
COc1cncc(N2C3CCNCC2CC3)c1 (stereo not drawn) [9-[5-Methoxy)-(3-pyridyl)]-3,9-diazabicyclo-[4.2.1]-nonane Fumaric Acid Salt] | 0.15 | 3 |  | 
CC=COc1cncc(N2C3CCNCC2CC3)c1 (stereo not drawn) (as salt: fumaric acid salt) [9-[5-(Propyl-1-en-oxy)-(3-pyridyl)]-3,9-diazabicyclo-[4.2.1]-nonane Fumaric Acid Salt] |  |  |  | 161.5 to 163
CN1C2CCC1CN(c1ccc(Cl)nn1)CC2 (stereo not drawn) [3-[6-Chloro-(3-pyridazinyl)]-9-methyl-3,9-diazabicyclo-[4.2.1]-nonane Fumaric Acid Salt] | 1.2 | 10 |  | 
